Measurements from patent US20210177814A1, “USE OF GUANABENZ OR DERIVATES THEREOF FOR THE TREATMENT OF TYPE I IFN-DEPENDENT PATHOLOGIES” (INSERM (Institut National de la Santé et de la Recherche …, priority 2018, published 2021).

Molecular target: T1, hTLR3 (Homo sapiens, UniProt O15455)
T1 construct: expressed in transfected cells; host or cells: HEK-Blue (HEK 293) hTLR3 reporter cells
T1 sequence (O15455 24-904): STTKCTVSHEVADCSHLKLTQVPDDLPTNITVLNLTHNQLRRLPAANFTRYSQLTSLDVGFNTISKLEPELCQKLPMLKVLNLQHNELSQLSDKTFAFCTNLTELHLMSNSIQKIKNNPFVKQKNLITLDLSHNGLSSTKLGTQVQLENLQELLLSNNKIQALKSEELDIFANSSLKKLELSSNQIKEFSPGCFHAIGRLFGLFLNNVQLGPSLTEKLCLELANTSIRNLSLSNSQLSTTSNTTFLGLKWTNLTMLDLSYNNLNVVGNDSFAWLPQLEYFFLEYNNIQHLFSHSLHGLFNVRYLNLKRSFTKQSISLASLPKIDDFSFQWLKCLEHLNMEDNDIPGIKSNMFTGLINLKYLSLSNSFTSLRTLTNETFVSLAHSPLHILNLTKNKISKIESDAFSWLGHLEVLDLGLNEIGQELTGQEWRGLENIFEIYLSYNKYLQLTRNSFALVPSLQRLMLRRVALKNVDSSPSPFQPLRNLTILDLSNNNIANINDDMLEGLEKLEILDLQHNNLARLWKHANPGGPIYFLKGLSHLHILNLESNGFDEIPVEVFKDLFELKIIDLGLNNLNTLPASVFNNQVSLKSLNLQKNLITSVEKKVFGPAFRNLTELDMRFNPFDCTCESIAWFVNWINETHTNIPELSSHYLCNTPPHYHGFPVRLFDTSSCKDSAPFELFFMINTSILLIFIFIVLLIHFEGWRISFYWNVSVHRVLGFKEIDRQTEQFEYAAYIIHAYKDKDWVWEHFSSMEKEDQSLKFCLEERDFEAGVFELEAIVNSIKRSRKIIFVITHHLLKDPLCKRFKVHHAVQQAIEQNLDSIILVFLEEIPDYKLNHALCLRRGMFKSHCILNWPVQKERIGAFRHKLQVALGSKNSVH
Assay: HEK-Blue hTLR3 SEAP reporter assay
Assay type: cell-based
Settings: 10 μg/mL poly I:C LMW, GBZ 50 μM
Protocol: FIG. 1: Guanabenz inhibits TLR3 and TLR9 activation in mouse Flt3-L DCs and human blood pDCs. A) Sorted bone marrow derived Flt3L-DCs were activated for 6 h with 10 μg/mL poly I:C LMW (TLR3 in DC1) or 1 μM ODN 1585 (TLR9 in pDCs). GBZ was added at 50 μM and inhibited IFN-β and Interleukin-6 (IL-6) production in activated cells. B) hTLR4, hTLR3, hTLR9 and hTLR7 expressed in the reporter HEK-Blue™ cells are inhibited by GBZ. TLR-expressing HEK-Blue™ cells were respectively activated with 100 ng/mL LPS, 10 μg/mL poly I:C LMW, 2.5 μM ODN 2006 or 5 μg/mL imiquimod, respectively. GBZ was added at 50 μM. TLR activity was measured indirectly through SEAP activity as absorbance at 405 nm. […] Protein concentration of IFN-α and TNF-α secreted were measured at the indicated time points or at 16 h. […]
Given the efficiency of GBZ on mouse TLR3 and TLR9, we turned to human TLRs, in order to extend the relevance of our observations. GBZ-mediated inhibition was first evaluated on NF-kB signaling by monitoring secreted alkaline phosphatase (SEAP) reporter levels in HEK-293 cells expressing TLR3, TLR4, TLR7, TLR9 (FIG. 1B). […] The functionality of the TLR9 transduction pathway was next evaluated by using phospho-flow detection of 40S ribosomal protein S6 (rpS6) phosphorylation, a well characterized early signaling event down-stream of TLR activation by LPS or viruses.

NC(N)=N/N=C/c1c(Cl)cccc1Cl [GBZ, 2-(2,6-dichlorobenzylidene)-hydrazinecarboximidamide]
TLR3-dependent activation of the SEAP reporter: inhibited
